Drawing on patent US12582722B2, “Bifunctional compounds for degrading BTK via ubiquitin proteosome pathway” (NURIX THERAPEUTICS, INC., priority 2019, dated 2026), this text covers DC50 for 18 molecules.

The DC50 is the concentration at which degradation of the target reaches its halfway point. A high value points to degradation only at high concentration.

For the experiment, the target named is T1, BTK (Homo sapiens, UniProt Q06187).
T1 construct: endogenous in cells; host or cells: Ramos (ATCC CRL-1596)
Put plainly: Cellular BTK HTRF Assay (BTK degradation in Ramos cells). In kind it is cell-based. To be noted: four hours incubation, 37° C., BTK levels relative to DMSO-treated cells. Here is the method: Ramos (CRL-1596) cells were obtained from American Type Culture Collection and were grown in RPMI-1640 media (ATCC, 30-2001) supplemented with 10% heat-inactivated FBS (Corning Premium Fetal Bovine Serum from Fisher, MT35015CV).
Compounds of the present invention were added to 50,000 Ramos cells in round-bottom 96 well plates with a final DMSO concentration of […] and were incubated at 37° C., 5% CO2 for four hours. BTK levels were determined using Cisbio Total-BTK HTRF ([…] Time-Resolved Fluorescence) kit (63ADK064PEG) according to manufacturer's protocol. Briefly, cells were incubated in 1× supplied lysis buffer for 30 minutes. In an opaque white low volume 96 well plate (Cisbio, 66PL96005), cell lysate was combined with two different specific BTK antibodies, one conjugated with Eu^3+-Cryptate FRET donor and one conjugated with d2 FRET acceptor. Assay controls include wells containing cell lysate with only the Eu^3+-Cryptate FRET donor antibody and wells containing both HTRF antibodies and lysis buffer without cells or control lysate provided by Cisbio. HTRF ratio was calculated as (acceptor signal at 665 nm/donor signal at 620 nm)×10^4. Background HTRF levels were determined from the control well containing the donor, but no acceptor, antibody. Background HTRF levels were subtracted from all samples. Readouts were reported as HTRF levels relative to HTRF levels of DMSO-treated cells. Four-parameter non-linear regressions were performed in GraphPad Prism 7.02 to obtain DC50 values. DC50 values are provided in Table 3, wherein A<7.5 nM, 7.5 nM≤B≤50 nM, and 50 nM<C<500 nM.
A general note: TR-FRET usually uses a lanthanide donor and a delayed reading to cut background.

SMILES strings stand for the structures.

T1 sequence (Q06187 whole entry): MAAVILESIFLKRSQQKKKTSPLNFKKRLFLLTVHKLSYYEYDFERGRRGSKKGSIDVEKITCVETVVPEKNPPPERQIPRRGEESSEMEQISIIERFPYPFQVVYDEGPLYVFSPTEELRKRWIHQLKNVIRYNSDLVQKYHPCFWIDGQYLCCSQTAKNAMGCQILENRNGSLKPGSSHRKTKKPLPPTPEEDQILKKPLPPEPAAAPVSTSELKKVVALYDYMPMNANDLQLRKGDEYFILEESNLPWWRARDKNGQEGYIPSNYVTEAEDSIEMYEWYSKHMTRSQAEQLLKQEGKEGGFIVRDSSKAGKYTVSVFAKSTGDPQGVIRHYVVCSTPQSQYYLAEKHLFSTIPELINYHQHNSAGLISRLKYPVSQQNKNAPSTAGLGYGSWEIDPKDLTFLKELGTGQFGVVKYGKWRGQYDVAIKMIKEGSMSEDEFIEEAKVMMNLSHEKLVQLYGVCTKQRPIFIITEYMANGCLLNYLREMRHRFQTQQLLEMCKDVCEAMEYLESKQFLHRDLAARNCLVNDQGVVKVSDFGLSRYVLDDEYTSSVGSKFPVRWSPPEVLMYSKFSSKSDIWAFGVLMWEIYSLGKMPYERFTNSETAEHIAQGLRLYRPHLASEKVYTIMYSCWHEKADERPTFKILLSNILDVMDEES

Take `CS(=O)(=O)c1ccc(Nc2nc(N3CCC[C@@H](NC(=O)OCCCCCOc4ccc5c(c4)C(=O)N(C4CCC(=O)NC4=O)C5=O)C3)cnc2C(N)=O)cc1` (stereo partly drawn) [Compound 2, 5-((2-(2,6-dioxopiperidin-3-yl)-1,3-dioxoisoindolin-5-yl)oxy)pentyl ((R)-1-(5-carbamoyl-6-((4-(methylsulfonyl)phenyl)amino)pyrazin-2-yl)piperidin-3-yl)carbamate]: the DC50 lay within 7.5 to 50 nM.
As for `CS(=O)(=O)c1ccc(Nc2nc(N3CCC[C@@H](NC(=O)N4CCN(Cc5ccc6c(c5)C(=O)N(C5CCC(=O)NC5=O)C6=O)CC4)C3)cnc2C(N)=O)cc1` (stereo partly drawn) [Compound 26, 5-((3R)-3-(4-((2-(2,6-dioxopiperidin-3-yl)-1,3-dioxoisoindolin-5-yl)methyl)piperazine-1-carboxamido)piperidin-1-yl)-3-((4-(methylsulfonyl)phenyl)amino)pyrazine-2-carboxamide], the figure is 50 to 500 nM; as for `CS(=O)(=O)c1ccc(Nc2nc(N3CCC[C@@H](NC(=O)CCOCCCc4cccc5c4CN(C4CCC(=O)NC4=O)C5=O)C3)cnc2C(N)=O)cc1` (stereo partly drawn) [Compound 47, 5-[(3R)-3-(3-{3-[2-(2,6-dioxopiperidin-3-yl)-1-oxo-3H-isoindol-4-yl]propoxy}propanamido)piperidin-1-yl]-3-[(4-methanesulfonylphenyl)amino] pyrazine-2-carboxamide], 50 to 500 nM; as for `Cc1cc(Nc2nc(N3CCC[C@@H](NC(=O)C4CCN(CC5CN(c6ccc7c(c6)C(=O)N(C6CCC(=O)NC6=O)C7=O)C5)CC4)C3)cnc2C(N)=O)sn1` (stereo partly drawn) [Compound 17, 5-[(3R)-3-[1-({1-[2-(2,6-dioxopiperidin-3-yl)-1,3-dioxoisoindol-5-yl]azetidin-3-yl}methyl)piperidine-4-amido]piperidin-1-yl]-3-[(3-methyl-1,2-thiazol-5-yl)amino]pyrazine-2-carboxamide], less than 7.5 nM.
As for `Cn1cc(Nc2nc(N3CCC[C@@H](N4CC5(CN(CC6CN(c7ccc8c(c7)C(=O)N(C7CCC(=O)NC7=O)C8=O)C6)C5)OC4=O)C3)cnc2C(N)=O)cn1` (stereo partly drawn) [Compound 42, 5-((3R)-3-(2-((1-(2-(2,6-dioxopiperidin-3-yl)-1,3-dioxoisoindolin-5-yl)azetidin-3-yl)methyl)-6-oxo-5-oxa-2,7-diazaspiro[3.4]octan-7-yl)piperidin-1-yl)-3-((1-methyl-1H-pyrazol-4-yl)amino)pyrazine-2-carboxamide], the figure is less than 7.5 nM.
For `Cc1cc(Nc2nc(N3CCC[C@@H](NC(=O)C4CCN(C5CN(Cc6ccc7c(c6)C(=O)N(C6CCC(=O)NC6=O)C7=O)C5)CC4)C3)cnc2C(N)=O)sn1` (stereo partly drawn) [Compound 37, 5-[(3R)-3-[1-(1-{[2-(2,6-dioxopiperidin-3-yl)-1,3-dioxoisoindol-5-yl]methyl}azetidin-3-yl)piperidine-4-amido]piperidin-1-yl]-3-[(3-methyl-1,2-thiazol-5-yl)amino]pyrazine-2-carboxamide] the value was less than 7.5 nM; for `CS(=O)(=O)c1ccc(Nc2nc(N3CCC[C@@H](NC(=O)CCCCCCc4cccc5c4CN(C4CCC(=O)NC4=O)C5=O)C3)cnc2C(N)=O)cc1` (stereo partly drawn) [Compound 5, 5-[(3R)-3-{7-[2-(2,6-dioxopiperidin-3-yl)-1-oxo-3H-isoindol-4-yl]heptanamido}piperidin-1-yl]-3-[(4-methanesulfonylphenyl)amino]pyrazine-2-carboxamide], 50 to 500 nM; for `CS(=O)(=O)c1ccc(Nc2nc(N3CCC[C@@H](NC(=O)N4CCC5(CCN(Cc6ccc7c(c6)C(=O)N(C6CCC(=O)NC6=O)C7=O)C5)CC4)C3)cnc2C(N)=O)cc1` (stereo partly drawn) [Compound 13, N-[(3R)-1-{5-carbamoyl-6-[(4-methanesulfonylphenyl)amino]pyrazin-2-yl}piperidin-3-yl]-2-{[2-(2,6-dioxopiperidin-3-yl)-1,3-dioxoisoindol-5-yl]methyl}-2,8-diazaspiro[4.5]decane-8-carboxamide], less than 7.5 nM.
Turning to `Cc1cc(Nc2nc(N3CCC[C@@H](NC(=O)N4CCC5(CC4)CCN(c4ccc6c(c4)C(=O)N(C4CCC(=O)NC4=O)C6=O)CC5)C3)cnc2C(N)=O)sn1` (stereo partly drawn) [Compound 12, N-[(3R)-1-{5-carbamoyl-6-[(3-methyl-1,2-thiazol-5-yl)amino]pyrazin-2-yl}piperidin-3-yl]-9-[2-(2,6-dioxopiperidin-3-yl)-1,3-dioxoisoindol-5-yl]-3,9-diazaspiro[5.5]undecane-3-carboxamide], the DC50 is 7.5 to 50 nM.
`CS(=O)(=O)c1ccc(Nc2nc(N3CCC[C@@H](NC(=O)N4CC5(C4)CN(c4ccc6c(c4)C(=O)N(C4CCC(=O)NC4=O)C6=O)C5)C3)cnc2C(N)=O)cc1` (stereo partly drawn) [Compound 24, N-[(3R)-1-{5-carbamoyl-6-[(4-methanesulfonylphenyl)amino]pyrazine-2-yl}piperidin-3-yl]-6-[2-(2,6-dioxopiperidin-3-yl)-1,3-dioxoisoindol-5-yl]-2,6-diazaspiro[3.3]heptane-2-carboxamide] showed a DC50 of 7.5 to 50 nM.
As for `Cc1cc(Nc2nc(N3CCC[C@@H](NC(=O)C4CCN(CC5CCN(c6ccc7c(c6)C(=O)N(C6CCC(=O)NC6=O)C7=O)CC5)CC4)C3)cnc2C(N)=O)sn1` (stereo partly drawn) [Compound 22, 5-[(3R)-3-[1-({1-[2-(2,6-dioxopiperidin-3-yl)-1,3-dioxoisoindol-5-yl]piperidin-4-yl}methyl)piperidine-4-amido]piperidin-1-yl]-3-[(3-methyl-1,2-thiazol-5-yl)amino]pyrazine-2-carboxamide], the figure is less than 7.5 nM; as for `Cc1cc(Nc2nc(N3CCCC(NC(=O)CCOCCCc4cccc5c4CN(C4CCC(=O)NC4=O)C5=O)C3)cnc2C(N)=O)sn1` (stereo in doubt) [Compound 45, 5-[(3R)-3-(3-{3-[2-(2,6-dioxopiperidin-3-yl)-1-oxo-3H-isoindol-4-yl]propoxy}propanamido)piperidin-1-yl]-3-[(3-methyl-1,2-thiazol-5-yl)amino]pyrazine-2-carboxamide], 50 to 500 nM.
For `CS(=O)(=O)c1ccc(Nc2nc(N3CCC[C@@H](NC(=O)[C@H]4CCN(CC5CCN(c6ccc7c(c6)C(=O)N(C6CCC(=O)NC6=O)C7=O)CC5)C4)C3)cnc2C(N)=O)cc1` (stereo partly drawn) [Compound 46, 5-[(3R)-3-[1-({1-[2-(2,6-dioxopiperidin-3-yl)-1,3-dioxoisoindol-5-yl]piperidin-4-yl}methyl)pyrrolidine-3-amido]piperidin-1-yl]-3-[(4-methanesulfonylphenyl)amino]pyrazine-2-carboxamide] the value was 7.5 to 50 nM; for `CS(=O)(=O)c1ccc(Nc2nc(N3CCC[C@@H](NC(=O)C4CC5CCC(C4)N5C4CCN(c5ccc6c(c5)C(=O)N(C5CCC(=O)NC5=O)C6=O)CC4)C3)cnc2C(N)=O)cc1` (stereo partly drawn) [Compound 41, N-[(3R)-1-{5-carbamoyl-6-[(4-methanesulfonylphenyl)amino]pyrazin-2-yl}piperidin-3-yl]-8-{1-[2-(2,6-dioxopiperidin-3-yl)-1,3-dioxoisoindol-5-yl]piperidin-4-yl}-8-azabicyclo[3.2.1]octane-3-carboxamide], 50 to 500 nM; for `Cc1cc(Nc2nc(N3CCC[C@@H](NC(=O)C4CCN(C5CN(c6ccc7c(c6)C(=O)N(C6CCC(=O)NC6=O)C7=O)C5)CC4)C3)cnc2C(N)=O)sn1` (stereo partly drawn) [Compound 38, 5-((3R)-3-(1-(1-(2-(2,6-dioxopiperidin-3-yl)-1,3-dioxoisoindolin-5-yl)azetidin-3-yl)piperidine-4-carboxamido)piperidin-1-yl)-3-((3-methylisothiazol-5-yl)amino)pyrazine-2-carboxamide], 7.5 to 50 nM.
As for `Cn1cc(Nc2nc(N3CCC[C@@H](NC(=O)C4CCN(CC5CCN(c6ccc7c(c6)C(=O)N(C6CCC(=O)NC6=O)C7=O)CC5)CC4)C3)cnc2C(N)=O)cn1` (stereo partly drawn) [Compound 21, 5-((3R)-3-(1-((1-(2-(2,6-dioxopiperidin-3-yl)-1,3-dioxoisoindolin-5-yl)piperidin-4-yl)methyl)piperidine-4-carboxamido)piperidin-1-yl)-3-((1-methyl-1H-pyrazol-4-yl)amino)pyrazine-2-carboxamide], the DC50 was less than 7.5 nM.
As for `Cn1cc(Nc2nc(N3CCC[C@@H](N4CC5(CN(C6CCN(c7ccc8c(c7)C(=O)N(C7CCC(=O)NC7=O)C8=O)CC6)C5)OC4=O)C3)cnc2C(N)=O)cn1` (stereo partly drawn) [Compound 44, 5-[(3R)-3-(2-{1-[2-(2,6-dioxopiperidin-3-yl)-1,3-dioxoisoindol-5-yl]piperidin-4-yl}-6-oxo-5-oxa-2,7-diazaspiro[3.4]octan-7-yl)piperidin-1-yl]-3-[(1-methylpyrazol-4-yl)amino]pyrazine-2-carboxamide], the figure is less than 7.5 nM; as for `CS(=O)(=O)c1ccc(Nc2nc(N3CCC[C@@H](NC(=O)OCCC4CCN(c5ccc6c(c5)C(=O)N(C5CCC(=O)NC5=O)C6=O)CC4)C3)cnc2C(N)=O)cc1` (stereo partly drawn) [Compound 6, 2-(1-(2-(2,6-dioxopiperidin-3-yl)-1,3-dioxoisoindolin-5-yl)piperidin-4-yl)ethyl ((R)-1-(5-carbamoyl-6-((4-(methylsulfonyl)phenyl)amino)pyrazin-2-yl)piperidin-3-yl)carbamate], 7.5 to 50 nM.
